Experimental data as given in US5441941A, “1,2-dihydroellipticines with activity against CNS specific cancer” (The United States of America as represented by the …, priority 1993, dated 1995).

Assays:
MOLT-4 = test: cells; details: Homo sapiens
OVCAR-5 = test: NCI in vitro screen, SRB percent growth, Ovarian Cancer
SF-539 = test: NCI in vitro screen, SRB percent growth, CNS Cancer
TK-10 = test: NCI in vitro screen, SRB percent growth, Renal Cancer
U251 = test: NCI in vitro screen, SRB percent growth, CNS Cancer
CAKI-1 = test: NCI in vitro screen, SRB percent growth, Renal Cancer
CCRF-CEM = test: NCI in vitro screen, SRB percent growth, Leukemia
IGROV1 = test: NCI in vitro screen, SRB percent growth, Ovarian Cancer
[1] = MOLT-4, read-out: Percent Growth
[2] = Log10 Concentration -4.0, 100 µM
[3] = Log10 Concentration -7.0, 0.1 µM

COc1ccc2[nH]c3c(C)c4c(c(C)c3c2c1)CN(C)C=C4 [Formula VII]
GI50 (MOLT-4; MOLT-4): 0.3 µM
CC50 (MOLT-4; MOLT-4, read-out: LC-50): > 100 µM
activity at 0.01 µM (MOLT-4; [1]): 110%
activity at 0.1 µM (MOLT-4; [1]): 68%
activity at 1 µM (MOLT-4; [1]): 30%
activity at 10 µM (MOLT-4; [1]): 8%
activity at 100 µM (MOLT-4; [1]): -27%
IC (TGI) (MOLT-4; MOLT-4, read-out: TGI): 16.7 µM
Percent Growth (OVCAR-5; [2]): -10%
Percent Growth (OVCAR-5; Log10 Concentration -5.0): 70%
Percent Growth (OVCAR-5; Log10 Concentration -6.0, 1 µM): 119%
Percent Growth (OVCAR-5; [3]): 136%
Percent Growth (OVCAR-5; Log10 Concentration -8.0): 133%
TGI (OVCAR-5; PG=0): 75.5 µM
GI50 (OVCAR-5; PG=+50): 17.8 µM
CC50 (OVCAR-5; read-out: LC-50, PG=-50): > 100 µM
Percent Growth (SF-539; [2]): -33%
Percent Growth (SF-539; Log10 Concentration -5.0): -43%
Percent Growth (SF-539; Log10 Concentration -6.0, 1 µM): 30%
Percent Growth (SF-539; [3]): 99%
Percent Growth (SF-539; Log10 Concentration -8.0): 116%
TGI (SF-539; PG=0): 2.6 µM
GI50 (SF-539; PG=+50): 0.518 µM
CC50 (SF-539; read-out: LC-50, PG=-50): > 100 µM
Percent Growth (TK-10; [2]): -6%
Percent Growth (TK-10; Log10 Concentration -5.0): 64%
Percent Growth (TK-10; Log10 Concentration -6.0, 1 µM): 114%
Percent Growth (TK-10; [3]): 127%
Percent Growth (TK-10; Log10 Concentration -8.0): 120%
TGI (TK-10; PG=0): 82.7 µM
GI50 (TK-10; PG=+50): 15.9 µM
CC50 (TK-10; read-out: LC-50, PG=-50): > 100 µM
Percent Growth (U251; [2]): -47%
Percent Growth (U251; Log10 Concentration -5.0): -45%
Percent Growth (U251; Log10 Concentration -6.0, 1 µM): 3%
Percent Growth (U251; [3]): 87%
TGI (U251; PG=0): 1.18 µM
GI50 (U251; PG=+50): 0.276 µM
CC50 (U251; read-out: LC-50, PG=-50): > 100 µM
Percent Growth (CAKI-1; [2]): -11%
Percent Growth (CAKI-1; Log10 Concentration -5.0): 38%
Percent Growth (CAKI-1; Log10 Concentration -6.0, 1 µM): 83%
Percent Growth (CAKI-1; [3]): 107%
Percent Growth (CAKI-1; Log10 Concentration -8.0): 110%
TGI (CAKI-1; PG=0): 60.7 µM
GI50 (CAKI-1; PG=+50): 5.5 µM
CC50 (CAKI-1; read-out: LC-50, PG=-50): > 100 µM
Percent Growth (CCRF-CEM; [2]): -10%
Percent Growth (CCRF-CEM; Log10 Concentration -5.0): 29%
Percent Growth (CCRF-CEM; Log10 Concentration -6.0, 1 µM): 78%
Percent Growth (CCRF-CEM; [3]): 92%
TGI (CCRF-CEM; PG=0): 54.5 µM
GI50 (CCRF-CEM; PG=+50): 3.65 µM
CC50 (CCRF-CEM; read-out: LC-50, PG=-50): > 100 µM
Percent Growth (IGROV1; [2]): -20%
Percent Growth (IGROV1; Log10 Concentration -5.0): 14%
Percent Growth (IGROV1; Log10 Concentration -6.0, 1 µM): 47%
Percent Growth (IGROV1; [3]): 80%
Percent Growth (IGROV1; Log10 Concentration -8.0): 105%
TGI (IGROV1; PG=0): 25.3 µM
GI50 (IGROV1; PG=+50): 0.819 µM
CC50 (IGROV1; read-out: LC-50, PG=-50): > 100 µM
